Measurements reported in patent US9410939B2, “Methods for predicting mammalian embryo viability” (Cambridge Enterprise Limited, priority 2011, dated 2016).
Marks after values point to notes of the source that are not given here.

Tests used:
Format in all cases: cell-based
[1] = tested on: fertilized mouse eggs; assay: PIV analysis of cytoplasmic movements (speed-peaks, after-movements, basal speed) in inhibitor-treated zygotes; settings: for Mean amplitude of after-movements +/- s.d. / Mean amplitude of speed-peaks +/- s.d.: inhibitor-treated zygotes; for decrease in basal speed: vs control zygotes
Experimental: (§1) F1 (C57B16×CBA) mouse females were superovulated and oocytes and zygotes recovered as described previously^44. Parthenogenetic activation was performed by incubating eggs for 4 hrs in M2 medium without Ca^2+/Mg^2+ supplemented with 10 mM SrCl2. Germinal vesicle (GV) oocytes were isolated from ovaries to M2 medium supplemented with 150 μg/ml dibutyryl cyclic AMP (dbcAMP). Epididymal sperm was isolated from F1 males and capacitated in 0.5 ml of fertilization medium with 4 mg/ml BSA^45. Embryos were imaged in KSOM medium as described previously^44. In some experiments prior to imaging embryos were pre-incubated for 20 min with 30 μM BAPTA-AM (to chelate Ca^2+), 5 μg/ml nocodazole (to depolimerize microtubules), 2 μg/ml cytochalasin D (to depolimerize F-actin), 10 μM taxol (to stabilize microtubules) or 100 nM jasplakinolide (to stabilize F-actin) and then transferred to pure KSOM (BAPTA-treated embryos) or to KSOM containing the respective drug (rest of the treated embryos). Embryos treated with ML-7 (to inhibit myosin light chain kinase (MLCK) and therefore myosin II activation^46) were pre-incubated with 25 μM ML-7 for 20 mins and then imaged in a dish containing KSOM with 25 μM ML-7 without a mineral oil overlay which would have absorbed ML-7.
(§2) In most experiments zygotes were imaged in a single plane under an inverted confocal microscope (Zeiss LSM 510 Meta) at 37.5° C. and 5% CO2. DIC images were captured every 10 s using a 633 nm HeNe laser. To measure free Ca^2+ ion concentration, embryos were pre-incubated for 20 min in 5 μM FuraRed-AM (Invitrogen) and FuraRed and DIC images were obtained simultaneously with a 488 nm argon laser. In experiments in which correlations between cytoplasmic movements and developmental potential of the embryos were examined zygotes were imaged in a single plane in transmitted light under standard non-confocal microscopes (Zeiss Axiovert or Deltavision) every 10 s for 2.5 hrs. In experiments in which cytoplasmic movements in the cortex and central parts of zygotes were compared embryos were imaged on the Deltavision microscope in 11 planes every 6 μm, every 10 s for 3 hrs. Intensity of FuraRed fluorescence was measured using ImageJ software. Images were analyzed using custom written software in MATLAB (The Mathworks Inc., Natick, Mass., USA) using algorithms adapted from MatPIV v1.6.1^47. The algorithm was based on that used in PIV, a standard analysis technique used extensively in fluid dynamics^21-24 that involves cross-correlating image sub-regions between sequential pairs of images. In the PIV analysis each image was divided into square interrogation regions and the cross-correlation coefficient distribution was calculated within a larger region in the next image in the sequence. The peak of the cross-correlation coefficient distribution gave the most likely location in the second image of the material in the interrogation region in the first image. This was then used to calculate the displacement vector over the time between images (FIG. 1A). As the displacement of the pattern of contrast of an area of pixels is being measured over many pixels it is possible to accurately measure sub-pixel movements with this technique^22, 24, 48.
(§3) DIC images of fertilized eggs were analyzed using custom written software in MATLAB (The Mathworks Inc., Natick, Mass., USA) using algorithms adapted from MatPIV v1.6.150. The algorithm was based on that used in PIV, a standard analysis technique that involves the use of pattern matching techniques based on cross-correlating sub-regions between sequential pairs of images (see Methods in the main text and FIG. 1a). To calculate a displacement for each analysed interrogation region two subsequent PIV iterations were used. First, the displacement was calculated for a larger interrogation area and then it was used as an estimate of where to centre the search area for the next iteration with a smaller interrogation region. […]

[2] = tested on: mouse zygotes; assay: Immunostaining of microtubules and actomyosin in treated zygotes
Experimental: To examine a correlation between cytoplasmic movements and developmental potential of the embryos, 10 μl of capacitated sperm suspension was added to eggs surrounded by cumulus cells and then gametes were co-incubated for 2 hrs. In experiments testing specificity of inhibitors or involving live imaging of actin and myosin, prior to fertilization eggs were treated shortly with acidic Tyrode's solution (pH=2.5) to remove zonas, then were mixed with approximately 1 μl of capacitated sperm suspension and incubated together for 30 min. In both cases fertilization was performed in fertilization medium supplemented with 4 mg/ml BSA^45. Embryos at 2-cell stage were transfer to oviducts of recipient F1 females mated with vasectomised males on 0.5 dpc. They were dissected on 6.5 dpc or 19.5 dpc.
Embryos were fixed in 4% PFA and permeabilised as described before^41. Embryos were scanned using an inverted confocal microscope (Zeiss LSM 510 Meta).
In more detail, embryos were fixed in 4% PFA (30 min, RT or 4° C. overnight), permeabilised with 0.2-0.5% Triton-X100 (30 min, RT) and blocked with 3% BSA or 10% FCS. Subsequently, they were stained with following antibodies and dyes: […]

[3] = tested on: fertilized mouse eggs; assay: Formation and maintenance of the fertilization cone (FC) in inhibitor-treated zygotes
Experimental: as §1, §2

[4] = tested on: in vivo fertilized mouse eggs; assay: Completion of meiosis (2PB extrusion) under Ca2+ chelation and cytoskeleton inhibitors
Experimental: as §1, §2

[5] = tested on: mouse eggs; assay: Cytoplasmic movements and Ca2+ transients in eggs parthenogenetically activated with SrCl2
Experimental: as §1
as §2, with “The peak of the cross-correlation coefficient distribution gave the most likely location in the second image of the material in the interrogation region in the first image. This was then used to calculate the displacement vector over the time between images (FIG. 1A).” left out
as §3, with “The algorithm was based on that used in PIV, a standard analysis technique that involves the use of pattern matching techniques based on cross-correlating sub-regions between sequential pairs of images (see Methods in the main text and FIG. 1a).” left out

[6] = tested on: mouse eggs; assay: Cytoplasmic movements in eggs injected with heat-inactivated sperm heads (ICSI) and activated with SrCl2; settings: for Mean amplitude of after-movements +/- s.d. / Mean amplitude of speed-peaks +/- s.d.: ICSI with the inactivated sperm and SrCl2 activation
Experimental: as §1, §2
ICSI was carried out as previously described^49 using Leica micromanipulators and Leica inverted microscope. In some experiments heat-inactivated sperm (30 min in 60° C.) was used instead of freshly isolated sperm. The sperm suspension was mixed with M2 medium containing 10% polyvinylpyrrolidone (PVP, Mr=360 kDa). Sperm were delivered into the oocytes' cytosol using a piezo micropipette-driving unit (IntraCel PMAS-CT150, PrimeTech, Japan).

[7] = treated zygotes, control zygotes 9.0 +/- 1.9
[8] = Stage 1 prolonged, activation with SrCl2

Structure (SMILES)	effect on speed-peaks [1]	Mean amplitude of after-movements +/- s.d. ([1]; Stage 1) [nm/s]	Mean amplitude of speed-peaks +/- s.d. ([1]; Stage 1)	Mean amplitude of after-movements +/- s.d. ([1]; Stage 2)	Mean amplitude of speed-peaks +/- s.d. ([1]; Stage 2)	Mean amplitude of after-movements +/- s.d. ([1]; Stage 3)	Mean amplitude of speed-peaks +/- s.d. ([1]; Stage 3) [nm/s]	Mean basal cytoplasmic speed +/- s.d. [1, 7]	effect on formation and/or maintenance of the FCs [3]	Zygotes that failed to extrude 2PB (%) [4]	Zygotes that extruded 2PB (%) [4]	other results
C/C1=C\[C@H](C)C[C@H](C)OC(=O)C[C@H](c2ccc(O)cc2)NC(=O)[C@@H](Cc2c(Br)[nH]c3ccccc23)N(C)C(=O)[C@H](C)NC(=O)[C@@H](C)C1 [Jasplakinolide, jasplakinolide]	amplitudes were significantly lower than in controls	5.2 ± 2.1	20.9 ± 10.1 nm/s	4.2 +/− 1.9^|| nm/s	14.5 +/− 8.3^|| nm/s	3.8 +/− 2.8^|| nm/s	10.8 ± 7.6	3.0 +/− 0.4* nm/s	still permitted formation and/or maintenance of FCs	(100) %		decrease in basal speed [1]: ~3 fold; effect on cytoskeleton by staining [2]: formation of a thicker cortical layer of actin
[Cl-].[Cl-].[Sr+2] [SrCl2]												delay of speed peaks with respect to the onset of the Ca2+ transient [5]: 10 to 30 s; Ca2+ transients accompanied by speed peaks ([5]; 133/444 transients, n=47 eggs): 30%; Ca2+ transients with after-movements present ([5]; 341/444 transients): 76.8%; Mean amplitude of after-movements +/- s.d. [5, 8]: 7.7 +/− 2.9^#,** nm/s; Mean amplitude of speed-peaks +/- s.d. [5, 8]: 7.4 +/− 4.0^#,||,¶ nm/s; lag of speed-peaks and FC pulsations after peaks of Ca2+ transients [6]: 10 to 30 s; Ca2+ transients accompanied by speed-peaks ([6]; 48/79 transients, Stage 2, FCs present, n=25): 60.8%; Mean amplitude of after-movements +/- s.d. ([6]; Stage 1): 7.9 ± 3.0 nm/s; Mean amplitude of speed-peaks +/- s.d. ([6]; Stage 1): 8.8 +/− 8.8^|| nm/s; Mean amplitude of after-movements +/- s.d. ([6]; Stage 2): 10.1 +/− 3.5^#,‡‡ nm/s; Mean amplitude of speed-peaks +/- s.d. ([6]; Stage 2): 8.6 +/− 5.4^# nm/s; Mean amplitude of after-movements +/- s.d. ([6]; Stage 3): 13.0 ± 7.0 nm/s; Mean amplitude of speed-peaks +/- s.d. ([6]; Stage 3): 7.1 +/− 4.3^# nm/s
O=S(=O)(c1cccc2c(I)cccc12)N1CCCNCC1 [ML-7]										(30.8) %	(69.2) %	zygotes in which cytoplasmic speed oscillations were blocked ([1]; 16/17 zygotes): 94.1%; Mean basal cytoplasmic speed +/- s.d. ([1]; A - mean basal velocity before M-phase/interphase transition): A. 5.1 +/− 1.3*^,‡ nm/s; Mean basal cytoplasmic speed +/- s.d. ([1]; B - mean basal velocity after M-phase/interphase transition): B. 8.3 +/− 1.1^†,‡ nm/s; embryos in which FCs were present ([3]; 10/17 embryos): 58.8%
COC(=O)Nc1nc2ccc(C(=O)c3cccs3)cc2[nH]1 [Nocodazole, nocodazole]	neither nocodazole-induced depolymerisation nor taxol-induced stabilisation of microtubules inhibited speed-peaks	11.1 ± 3.9	20.6 ± 11.2 nm/s	16.6 +/− 6.8^¶ nm/s	35.2 +/− 19.3^§ nm/s	21.5 +/− 6.7^|| nm/s	10.4 ± 8.5	11.0 +/− 1.5* nm/s	had no effect upon either formation and/or maintenance of the FCs	(58.3) %	(41.7) %	
CC(=O)O[C@H]1C(=O)[C@@]2(C)[C@H]([C@H](OC(=O)c3ccccc3)[C@]3(O)C[C@H](OC(=O)[C@H](O)[C@@H](NC(=O)c4ccccc4)c4ccccc4)C(C)=C1C3(C)C)[C@]1(OC(C)=O)CO[C@@H]1C[C@@H]2O [Taxol, taxol]	neither nocodazole-induced depolymerisation nor taxol-induced stabilisation of microtubules inhibited speed-peaks	7.9 ± 4.3	18.0 +/− 5.0^¶ nm/s	11.1 ± 5.3 nm/s	29.9 +/− 21.0^¶ nm/s	14.3 +/− 5.8^¶ nm/s	11.5 ± 6.5	7.7 +/− 1.7^§ nm/s	had no effect upon either formation and/or maintenance of the FCs	(100) %		
CC(=O)OCOC(=O)CN(CC(=O)OCOC(C)=O)c1ccccc1OCCOc1ccccc1N(CC(=O)OCOC(C)=O)CC(=O)OCOC(C)=O [BAPTA, BAPTA-AM]	suppressed high amplitude speed-peaks							15.3 +/− 3.3* nm/s		(33.3) %	(66.7) %	elevation of mean basal cytoplasmic speed ([1]; more than controls, 21 fertilized eggs): 1.7 fold; effect on cytoskeleton by staining [2]: disrupted microtubules
C=C1[C@@H](C)[C@H]2[C@H](Cc3ccccc3)NC(=O)[C@]23[C@H](OC(C)=O)/C=C/[C@@](C)(O)C(=O)[C@@H](C)C/C=C/[C@H]3[C@@H]1O [Cytochalasin D, cytochalasin D]	dramatically abolished speed-peaks							3.1 +/− 0.6* nm/s		(100) %		zygotes in which unfocused, low-amplitude speed-peaks were recorded ([1]; 2 out of 21 analyzed zygotes): 9.5%; decrease in basal speed [1]: ~3 fold; zygotes in which FCs did not form ([3]; 20/21 zygotes): 95%
